Experimental data as given in patent publication US20080032950A1, “Neurologically-Active Compounds” (The University of Sydney, priority 2004, published 2008).
Read-outs that look alike come from different tables or passages of the source.

Key:
GABAC (ρ1) = target: T1, GABAC (ρ1) (Homo sapiens, UniProt P24046); experiment: Two-electrode voltage clamp on ρ1 GABAC receptors expressed in Xenopus oocytes; type: cell-based; settings: for Selectivity (receptor subtype preferred): among GABAA, GABAB, GABAC; for Selectivity (fold): for GABAC over GABAA and GABAB
T1 construct: expressed in transfected cells; host or cells: Xenopus laevis oocytes injected with mRNA
Method: (§1) The activity of compounds (15), (16), (17), (18) and (19) on GABA receptor sub-types were determined as described in Chebib, M., Mewett, K. N., Johnston, G. A. R., 1998, “GABAC receptor antagonists differentiate between human ρ1 and ρ2 receptors expressed in Xenopus oocytes”, European Journal of Pharmacology 357, 227-234.
(§2) In this method, oocytes were harvested from Xenopus laevis and defolliculated. The oocytes were then stored in ND96 solution (96 mM NaCl, 2 mM KCl, 1.8 mM CaCl2.2H2O, 1 mM MgCl2.6H2O, 5 mM HEPES (hemi-Na), pH 7.5) supplemented with 2.5 mM sodium pyruvate, 0.5 mM theophylline and 50 μgml^−1 gentamycin. The storage solution was changed daily.
(§3) Stage V-VI oocytes were injected with mRNA (10 ng/50 nl) and then stored at 16° C. Recordings of receptor activity were obtained after two to eight days by a two-electrode voltage clamp by means of a Geneclamp 500 amplifier (Axon Instruments Inc., Foster City, Calif.), a MacLab 2e recorder (AD Instruments, Sydney, NSW) and Chart version 3.6.3 program. Oocytes were voltage clamped at −60 mV and the preparation was continually perfused with ND96 solution at room temperature. Known concentrations of agonists and antagonists dissolved in ND96 were applied in the absence and presence of GABA respectively until maximum current was reached, at which time the oocyte was washed for five to ten minutes to allow complete recovery of response to a known dose of GABA. In the case of antagonists, two dose response curves were conducted on the same cell to enable calculation of single point estimates: a GABA dose-response curve and a GABA dose-response curve in the presence of a known concentration of antagonist. All compounds were tested on oocytes from at least three harvests.
The activity of this compound on the GABA receptor sub-types was determined by the same procedure as described in Example 2 for compounds (15) to (19). (±)-3-Aminocyclopente-1-nyl)methylphosphinic acid (200 μM) had no effect alone on ρ1 GABAC receptors but in the presence of 1 μM GABA inhibited the response by 65%.

GABAA (α1β2γ2L) = target: T2, GABAA (α1β2γ2L) (Homo sapiens, UniProt P14867+P47870); experiment: Two-electrode voltage clamp on GABAA receptors expressed in Xenopus oocytes; type: cell-based; settings: for GABAA (α1β2γ2L) activity (type of action): Xenopus oocytes, voltage clamp -60 mV
T2 construct: expressed in transfected cells; host or cells: Xenopus laevis oocytes injected with mRNA
Method: as §1, §2, §3

GABAB (GB1) = target: T3, GABAB (GB1) (Homo sapiens, UniProt Q9UBS5); experiment: Two-electrode voltage clamp on GABAB receptors expressed in Xenopus oocytes; type: cell-based; settings: for GABAB (GB1) activity (type of action): voltage clamp -60 mV
T3 construct: expressed in transfected cells; host or cells: Xenopus laevis oocytes injected with mRNA
Method: as §1, §2, §3

GABAC receptors = settings: antagonist; Woodward et al, 1993; cited from earlier work
GABAC receptor = GABAC receptor (Homo sapiens, UniProt P24046); settings: cited from earlier work
[1] = Xenopus oocytes, voltage clamp -60 mV

T1 sequence (P24046 22-479): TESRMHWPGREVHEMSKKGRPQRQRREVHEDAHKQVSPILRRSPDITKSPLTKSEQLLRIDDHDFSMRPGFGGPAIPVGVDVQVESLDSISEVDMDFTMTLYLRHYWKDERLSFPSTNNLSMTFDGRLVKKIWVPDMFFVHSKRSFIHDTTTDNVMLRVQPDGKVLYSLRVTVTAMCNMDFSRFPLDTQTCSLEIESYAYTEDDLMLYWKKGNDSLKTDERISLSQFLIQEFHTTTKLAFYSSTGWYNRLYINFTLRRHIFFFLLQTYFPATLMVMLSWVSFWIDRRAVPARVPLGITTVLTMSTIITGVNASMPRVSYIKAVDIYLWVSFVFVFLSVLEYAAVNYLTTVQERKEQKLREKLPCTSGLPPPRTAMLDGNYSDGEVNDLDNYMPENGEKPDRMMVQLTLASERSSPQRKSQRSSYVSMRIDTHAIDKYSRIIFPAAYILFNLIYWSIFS
T3 sequence (Q9UBS5 20-961, species assumed): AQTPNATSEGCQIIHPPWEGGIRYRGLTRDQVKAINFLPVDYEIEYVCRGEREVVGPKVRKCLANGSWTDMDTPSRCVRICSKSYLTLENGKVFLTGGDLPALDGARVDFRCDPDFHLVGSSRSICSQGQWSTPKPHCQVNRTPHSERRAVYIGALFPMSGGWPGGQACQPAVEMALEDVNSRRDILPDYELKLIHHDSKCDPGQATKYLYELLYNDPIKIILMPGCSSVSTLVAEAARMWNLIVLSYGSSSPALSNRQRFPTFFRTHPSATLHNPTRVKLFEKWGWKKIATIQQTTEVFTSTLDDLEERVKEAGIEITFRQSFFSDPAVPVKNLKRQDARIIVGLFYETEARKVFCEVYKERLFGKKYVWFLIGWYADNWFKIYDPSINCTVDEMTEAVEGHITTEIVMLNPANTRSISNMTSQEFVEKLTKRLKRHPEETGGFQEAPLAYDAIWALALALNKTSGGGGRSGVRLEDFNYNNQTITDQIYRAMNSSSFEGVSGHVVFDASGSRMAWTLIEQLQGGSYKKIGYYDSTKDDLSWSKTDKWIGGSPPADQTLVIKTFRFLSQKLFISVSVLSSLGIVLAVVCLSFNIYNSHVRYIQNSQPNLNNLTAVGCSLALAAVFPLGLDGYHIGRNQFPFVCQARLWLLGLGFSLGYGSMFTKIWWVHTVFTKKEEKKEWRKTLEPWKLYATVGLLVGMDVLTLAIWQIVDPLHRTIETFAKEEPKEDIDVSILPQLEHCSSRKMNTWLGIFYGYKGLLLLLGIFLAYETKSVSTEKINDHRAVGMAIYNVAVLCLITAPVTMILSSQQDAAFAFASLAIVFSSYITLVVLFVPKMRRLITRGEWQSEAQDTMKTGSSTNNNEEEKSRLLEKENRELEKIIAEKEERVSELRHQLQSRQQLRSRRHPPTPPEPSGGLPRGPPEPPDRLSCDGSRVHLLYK
T3 sequence (O75899 42-941 partner, species assumed): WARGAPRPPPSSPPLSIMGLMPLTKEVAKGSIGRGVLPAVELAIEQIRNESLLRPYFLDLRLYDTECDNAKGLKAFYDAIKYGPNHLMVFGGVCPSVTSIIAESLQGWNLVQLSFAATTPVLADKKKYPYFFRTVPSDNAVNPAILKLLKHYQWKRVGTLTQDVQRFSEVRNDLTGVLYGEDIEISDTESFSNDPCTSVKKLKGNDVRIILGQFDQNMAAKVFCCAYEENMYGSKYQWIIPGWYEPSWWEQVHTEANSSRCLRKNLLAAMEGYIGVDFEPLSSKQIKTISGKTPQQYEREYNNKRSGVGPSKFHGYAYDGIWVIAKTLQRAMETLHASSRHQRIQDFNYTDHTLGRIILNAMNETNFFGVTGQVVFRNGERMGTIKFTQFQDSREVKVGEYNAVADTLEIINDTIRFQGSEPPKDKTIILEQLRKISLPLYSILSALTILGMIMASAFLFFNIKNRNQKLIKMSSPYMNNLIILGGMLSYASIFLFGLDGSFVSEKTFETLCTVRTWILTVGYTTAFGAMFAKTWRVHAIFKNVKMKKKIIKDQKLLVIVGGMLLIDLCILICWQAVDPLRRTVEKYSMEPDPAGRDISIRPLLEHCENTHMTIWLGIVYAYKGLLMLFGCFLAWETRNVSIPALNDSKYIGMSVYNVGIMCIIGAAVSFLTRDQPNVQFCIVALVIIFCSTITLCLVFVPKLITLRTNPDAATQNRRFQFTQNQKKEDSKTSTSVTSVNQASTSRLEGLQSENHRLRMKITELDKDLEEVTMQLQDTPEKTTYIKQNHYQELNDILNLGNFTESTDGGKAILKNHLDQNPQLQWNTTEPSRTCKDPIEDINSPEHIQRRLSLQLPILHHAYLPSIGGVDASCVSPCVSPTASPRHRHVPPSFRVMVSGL
T2 sequence (P14867 28-456): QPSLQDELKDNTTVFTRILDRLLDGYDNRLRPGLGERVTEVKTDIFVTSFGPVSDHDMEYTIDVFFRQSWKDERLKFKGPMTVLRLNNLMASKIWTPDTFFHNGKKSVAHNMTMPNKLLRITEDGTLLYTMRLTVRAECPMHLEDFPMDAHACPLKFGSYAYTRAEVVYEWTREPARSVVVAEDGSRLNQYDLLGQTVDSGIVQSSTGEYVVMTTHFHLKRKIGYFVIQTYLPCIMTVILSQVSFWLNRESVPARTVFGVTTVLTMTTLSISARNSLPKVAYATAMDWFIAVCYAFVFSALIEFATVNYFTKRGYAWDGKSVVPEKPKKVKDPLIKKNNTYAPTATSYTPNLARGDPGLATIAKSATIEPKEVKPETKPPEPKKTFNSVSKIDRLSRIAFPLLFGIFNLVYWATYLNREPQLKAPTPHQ
T2 sequence (P47870 25-512 limits assumed): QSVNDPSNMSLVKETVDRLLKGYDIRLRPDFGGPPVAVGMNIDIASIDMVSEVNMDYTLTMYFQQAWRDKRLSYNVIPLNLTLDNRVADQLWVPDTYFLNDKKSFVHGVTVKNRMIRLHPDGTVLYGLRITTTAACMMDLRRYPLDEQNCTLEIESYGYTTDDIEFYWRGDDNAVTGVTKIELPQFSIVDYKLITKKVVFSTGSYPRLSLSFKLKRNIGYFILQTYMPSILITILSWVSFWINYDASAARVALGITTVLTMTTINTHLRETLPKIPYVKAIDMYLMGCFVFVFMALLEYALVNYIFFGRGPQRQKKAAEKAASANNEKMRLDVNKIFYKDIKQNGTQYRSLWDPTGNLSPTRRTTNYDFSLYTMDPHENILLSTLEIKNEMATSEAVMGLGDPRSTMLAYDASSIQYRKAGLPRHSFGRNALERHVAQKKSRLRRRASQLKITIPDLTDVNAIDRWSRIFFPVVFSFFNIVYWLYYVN
T2 sequence (P18507 40-475 partner): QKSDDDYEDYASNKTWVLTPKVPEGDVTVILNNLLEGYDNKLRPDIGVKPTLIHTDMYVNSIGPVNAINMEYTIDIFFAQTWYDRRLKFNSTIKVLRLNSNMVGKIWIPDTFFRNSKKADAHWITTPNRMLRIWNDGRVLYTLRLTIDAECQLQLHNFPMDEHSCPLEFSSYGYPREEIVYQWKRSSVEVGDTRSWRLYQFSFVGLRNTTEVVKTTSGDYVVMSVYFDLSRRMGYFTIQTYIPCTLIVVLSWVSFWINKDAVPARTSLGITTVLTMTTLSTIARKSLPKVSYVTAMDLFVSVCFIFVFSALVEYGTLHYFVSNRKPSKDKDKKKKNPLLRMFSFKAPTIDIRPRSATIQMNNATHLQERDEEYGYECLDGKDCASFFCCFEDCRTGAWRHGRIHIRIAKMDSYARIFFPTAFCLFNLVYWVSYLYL
GABAC receptor, sequence (P24046 22-479): as the sequence (P24046 22-479) above

| Compound | GABAC (ρ1) activity (type of action) (GABAC (ρ1); [1]) | Selectivity (receptor subtype preferred) (GABAC (ρ1)) | Selectivity (fold) (GABAC (ρ1)) | IC50 (GABAA (α1β2γ2L)) | GABAA (α1β2γ2L) activity (type of action) (GABAA (α1β2γ2L)) | GABAB (GB1) activity (type of action) (GABAB (GB1); Xenopus oocytes) | IC50 (GABAB (GB1)) | Kb (GABAC receptors) | also measured |
| --- | --- | --- | --- | --- | --- | --- | --- | --- | --- |
| CP(=O)(O)C1=CCC(N)C1 (racemic) [Compound 15, (±)-(4-Aminocyclopent-1-enyl)methylphosphinic acid] | Antagonist | GABAC | ˜50x | > 300 µM | Antagonist | Partial Agonist |  |  |  |
| CCP(=O)(O)C1=CCC(N)C1 (racemic) [Compound 16, (±)-(4-Aminocyclopent-1-enyl)ethylphosphinic acid] | Antagonist | GABAC | ˜25x | > 600 µM | Antagonist | Antagonist | > 300 µM |  |  |
| CC(C)P(=O)(O)C1=CCC(N)C1 (racemic) [Compound 17, (±)-(4-Aminocyclopent-1-enyl)isopropylphosphinic acid] | Antagonist | GABAC | ˜50x | > 600 µM | Antagonist | Antagonist | > 300 µM |  | IC50 (GABAC (ρ1)): 6.34 µM |
| CCCCP(=O)(O)C1=CCC(N)C1 (racemic) [Compound 18, (±)-(4-Aminocyclopent-1-enyl)butylphosphinic acid] | Antagonist | GABAC | ˜100x | > 300 µM | Antagonist | Antagonist | ~300 µM |  |  |
| NC1CC=C(P(=O)(O)Cc2ccccc2)C1 (racemic) [Compound 19, (±)-(4-Aminocyclopent-1-enyl)benzylphosphinic acid] | Antagonist |  |  |  | Antagonist |  |  |  | IC50 (GABAC (ρ1); Xenopus oocytes, voltage clamp -60 mV, read-out: GABAC (ρ1) IC50): > 300 µM; GABAB (GB1) effect (GABAB (GB1); at ~300 μM, Xenopus oocytes): (No effect ˜ 300 μM) |
| NCCC[PH](=O)O [CGP27492, 3-aminopropylphosphinic acid] |  |  |  |  |  |  |  | 0.8 µM |  |
| CP(=O)(O)CCCN [CGP35024, (3-aminopropyl)methylphosphinic acid] |  |  |  |  |  |  |  | 0.8 µM |  |
| NCCCP(=O)(O)O [Compound 3-APA, 3-aminopropylphosphonic acid] |  |  |  |  |  |  |  | 1.8 µM |  |
| (1,2,5,6-tetrahydropyridine-4-yl)methylphosphinic acid [TPMPA] |  |  |  |  |  |  |  |  | Kb (GABAC receptor; antagonist, Murata et al, 1996, Ragozzinno et al, 1996, read-out: KB at GABAC receptors): 2.1 µM; IC50 (GABAC receptor; read-out: Concentration producing 50% inhibition of GABAC receptor activation): 2.1 µM |
